Activity calls are given as the source filed them. No cut-off for these calls is given here.
Experiments:
Plasmodium falciparum [1] = test: Antimalarial activity against Plasmodium falciparum NF54 strain male gametes in human RBC assessed as induction of impairment of exflagellation of male gametes by dual gamete formation assay; format: functional, organism-based
HepG2 [2] = test: Cytotoxicity against human HepG2 cells assessed as reduction in cell viability at 50 uM incubated for 48 hrs by Alamar Blue staining based fluorescence assay; format: functional
Plasmodium falciparum [3] = test: Antimalarial activity against Plasmodium falciparum NF54 strain male gametes in human RBC incubated for 48 hrs by dual gamete formation assay based HTS assay; format: functional, organism-based; settings: NF54, 48 h
Plasmodium falciparum [4] = test: Antimalarial activity against Plasmodium falciparum infected in mosquitoes assessed as inhibition of oocyst formation at 10 uM added 30 mins before mosquito feed by standard membrane feeding assay; format: functional
HepG2 [5] = test: Cytotoxicity against human HepG2 cells assessed as reduction in cell viability at 10 uM incubated for 48 hrs by Alamar Blue staining based fluorescence assay; settings: hepg2, 48 h

Structure (SMILES)	EC50 (Plasmodium falciparum [1]; Plasmodium falciparum, NF54) [µM]	EC50 (Plasmodium falciparum [1]) [µM]	other results
O=S(=O)(NCC1=CCOc2ccccc21)c1ccc(Br)s1	> 25	–	–
COc1cccc2c1C(=O)c1c(O)c3c(c(O)c1C2=O)C[C@@](O)(C(=O)CO)C[C@@H]3O[C@H]1C[C@H](N)[C@H](O)[C@H](C)O1	–	–	Activity (HepG2 [2]): Active
O=S(=O)(NCC1(O)CCOc2ccccc21)c1ccc(Br)s1 (racemic)	–	0.13 to 0.292	inhibition at 10 µM (Plasmodium falciparum [4]): 99%; EC50 (Plasmodium falciparum [3]): 0.2 µM; Activity (HepG2 [5]): Non-Toxic
O=S(=O)(NCC1CCOc2ccccc21)c1ccc(Br)s1 (racemic)	> 10	–	–
O=S(=O)(NCC1(O)CCOc2ccc(Br)cc21)c1ccc(Br)s1 (racemic)	> 1	–	–
O=S(=O)(NCC1(O)CCOc2ccccc21)c1ccccc1Cl (racemic)	> 1	–	–
COc1cccc2c1OCCC2(O)CNS(=O)(=O)c1ccc(Br)s1 (racemic)	> 25	–	–
N#Cc1ccc(S(=O)(=O)NCC2(O)CCOc3ccccc32)cc1 (racemic)	> 25	–	–
O=S(=O)(NCC1(O)CCOc2cc(F)ccc21)c1ccc(Br)s1 (racemic)	0.364	–	–
O=S(=O)(NCC1(O)CCOc2ccc(F)cc21)c1ccc(Br)s1 (racemic)	0.196	–	–
COC1(CNS(=O)(=O)c2ccc(Br)s2)CCOc2ccccc21 (racemic)	0.354	–	–
O=S(=O)(NCC1(O)CC(c2ccccc2)Oc2ccccc21)c1cccc(Br)c1 (racemic)	> 25	–	–
COc1ccc(S(=O)(=O)NCC2(O)CCOc3ccccc32)cc1 (racemic)	> 25	–	–
O=S(=O)(NCC1(O)CC(c2ccccc2)Oc2ccccc21)c1ccc(Br)s1 (racemic)	> 25	–	–
O=S(=O)(NCC1(O)CCOc2ccccc21)c1sccc1Br (racemic)	0.212	–	–
O=S(=O)(NCC1(O)CCOc2ccccc21)c1ccc(Br)s1 (single isomer, unassigned; (+))	–	> 1	–

Second part, led by results:

EC50 (Plasmodium falciparum [1]; Plasmodium falciparum, NF54) [µM]	EC50 (Plasmodium falciparum [1]) [µM]	Structure (SMILES)	other results
0.344 to 0.367	–	O=S(=O)(NCC1(O)CCOc2ccccc21)c1ccccc1Br (racemic)	EC50 (Plasmodium falciparum [3]): 0.53 µM
> 20	–	CC(=O)c1cccc(S(=O)(=O)NCC2(O)CCOc3ccccc32)c1 (racemic)	–
0.47	–	O=S(=O)(NCC1(O)CCOc2ccccc21)c1ccccc1 (racemic)	–
0.945	–	O=S(=O)(NCC1(F)CCOc2ccccc21)c1cccc(Br)c1 (racemic)	–
–	0.079	O=S(=O)(NCC1(O)CCOc2cc(F)ccc21)c1cccc(Br)c1 (racemic)	Activity (HepG2 [5]): Non-Toxic
> 25	–	C=CCOc1ccc2c(c1)C(O)(CNS(=O)(=O)c1cccc(Br)c1)CCO2 (racemic)	–
0.083	–	O=S(=O)(NCC1(O)CCOc2ccc(F)cc21)c1cccc(Br)c1 (racemic)	–
–	0.149	COC1(CNS(=O)(=O)c2cccc(Br)c2)CCOc2ccccc21 (racemic)	Activity (HepG2 [5]): Non-Toxic
> 5	–	O=S(=O)(NCC1(O)CCOc2ccccc21)c1ccc(Br)cc1 (racemic)	–
> 10	–	O=S(=O)(NCC1(O)CCOc2ccc(O)cc21)c1cccc(Br)c1 (racemic)	–
0.785	–	O=S(=O)(NCC1(O)CCOc2ccc(Br)cc21)c1cccc(Br)c1 (racemic)	–
–	0.128	O=S(=O)(NCC1(O)CCOc2ccccc21)c1cccc(Br)c1 (racemic)	Activity (HepG2 [5]): Non-Toxic
> 1	–	O=S(=O)(NCC1(O)CCOc2ccccc21)c1ccc(Cl)cc1 (racemic)	–
> 25	–	COc1cccc2c1OCCC2(O)CNS(=O)(=O)c1cccc(Br)c1 (racemic)	–
0.118	–	O=S(=O)(NCC1(O)CCOc2ccccc21)c1cccc(Cl)c1 (racemic)	–
> 10	–	O=S(=O)(NCC1CCOc2ccccc21)c1cccc(Br)c1 (racemic)	–
> 1	–	O=S(=O)(NCC1(F)CCOc2ccccc21)c1ccc(Br)s1 (racemic)	–
–	> 1	O=S(=O)(NCC1(O)CCOc2cc(F)ccc21)c1cccc(Br)c1 (single isomer, unassigned; (+))	–
–	> 2	COC1(CNS(=O)(=O)c2cccc(Br)c2)CCOc2ccccc21 (single isomer, unassigned; (+))	–
–	> 2	O=S(=O)(NCC1(O)CCOc2ccccc21)c1cccc(Br)c1 (single isomer, unassigned; (+))	–
–	0.046	O=S(=O)(NCC1(O)CCOc2ccccc21)c1ccc(Br)s1 (single isomer, unassigned; (-))	–
–	0.051	O=S(=O)(NCC1(O)CCOc2cc(F)ccc21)c1cccc(Br)c1 (single isomer, unassigned; (-))	–
–	0.018	O=S(=O)(NCC1(O)CCOc2ccccc21)c1cccc(Br)c1 (stereo in doubt; (-)-6)	–
–	0.059	COC1(CNS(=O)(=O)c2cccc(Br)c2)CCOc2ccccc21 (stereo in doubt; (-)-74)	–

— ChEMBL document CHEMBL4342413, “Structure-Activity Relationship Studies of a Novel Class of Transmission Blocking Antimalarials Targeting Male Gametes” (J Med Chem, 2020)
